Laboratory results reported in PMC2680961, “Homologous desensitization of signalling by the alpha (α) isoform of the human thromboxane A2 receptor: A specific role for nitric oxide signalling” (Biochimica et Biophysica Acta, 2007).
Residue numbers refer to the chain shown, from its start.

Assays:
[1] = target: T1, TPα^S331A (Homo sapiens, UniProt P21731, S331A); assay: [3H]SQ29,548 radioligand binding, Scatchard analysis, HEK.TPα^S331A
T1 construct: expressed in transfected cells
T1 sequence (P21731 1-343 S331A): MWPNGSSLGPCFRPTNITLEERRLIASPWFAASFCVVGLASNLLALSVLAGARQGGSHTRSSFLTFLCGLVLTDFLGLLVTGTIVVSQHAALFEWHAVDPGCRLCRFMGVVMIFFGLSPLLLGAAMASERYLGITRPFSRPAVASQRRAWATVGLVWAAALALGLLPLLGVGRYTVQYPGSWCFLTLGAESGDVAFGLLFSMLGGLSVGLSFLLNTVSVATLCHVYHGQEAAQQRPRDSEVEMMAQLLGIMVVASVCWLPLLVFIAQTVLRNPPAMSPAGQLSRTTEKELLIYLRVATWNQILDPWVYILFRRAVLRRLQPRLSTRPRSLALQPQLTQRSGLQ
Description: Cells were harvested by centrifugation at 500×g at 4 °C for 5 min and washed three times with ice-cold Ca^2+/Mg^2+-free phosphate-buffered saline (PBS). TP radioligand binding assays were carried out at 30 °C for 30 min in 100 μl reactions in the presence of 0–40 nM [^3H] […] Protein determinations were carried out using the Bradford assay.
Radioligand binding and Scatchard analysis data were analysed using GraphPad Prisim V4.0 programme (GraphPad Software Inc., San Diego CA, USA). Statistical analyses were carried out using the unpaired Student's t test using the Statworks Analysis Package. p-values ≤ 0.01 indicated statistically significant differences.

[2] = target: T2, TPα^S331,T337A (Homo sapiens, UniProt P21731, S331A/T337A); assay: Intracellular calcium mobilization, HEK.TPα^S331,T337A cells; assay type: cell-based; details: for Δ[Ca2+]i, U46619-induced: HEK.TPα^S331,T337A
T2 construct: expressed in transfected cells
T2 sequence (P21731 1-343 S331A/T337A): T1 sequence (P21731 1-343 S331A) with T337A
Description: (§1) Measurement of intracellular calcium mobilization ([Ca^2+]i) in FURA2/AM preloaded HEK 293 cell lines (2 × 10^6 cells/dish), each transiently co-transfected with pADVA (10 μg), and pCMV:Gαq (25 μg), was carried out as previously described. To investigate the effect of GRK2/βARK1 on TP-mediated [Ca^2+]i mobilization, HEK.TPα or HEK.TPβ cells (2 × 10^6 cells/dish) were co-transfected with pADVA (10 μg), pCMV:Gαq (25 μg) along with pRK5:βARK1^495–689 (25 μg), encoding a dominant negative form of GRK2/βARK1[39]. Approximately 48 h post-transfection, cells were harvested by scraping, washed twice in ice-cold PBS and resuspended in HBSSHB (modified Ca^2+/Mg^2+-free Hank's buffered salt solution, containing 10 μM HEPES, pH 7.67, 0.1% bovine serum albumin (BSA)) buffer at 10^7 cells/ml and incubated in the dark with 5 μM FURA2/AM for 45 min at 37 °C. […] For each measurement of [Ca^2+]i mobilization, aliquots of cells were diluted to 0.825 × 10^6 cells/ml in HBSSHB, 1 mM CaCl2 and FURA2 fluorescence was recorded (2 ml aliquots of cells) at 37^ °C with gentle stirring with a Perkin Elmer-Cetus LS50-B spectrofluorometer at excitation wavelengths of 340 nm and 380 nm and emission wavelength of 510 nm, respectively.
Cells were stimulated with the TP agonist U46619 (1 μM) and changes in [Ca^2+]i mobilization were monitored as a function of time. To assess agonist-mediated homologous desensitization, cells (0.825 × 10^6 cells/ml; 2 ml per assay) were stimulated with 1 μM U46619 (Primary stimulation) or, as a control, with the vehicle for 4 min; thereafter, cells were collected by centrifugation (900×g, 5 min); were washed twice in 2 ml HBSSHB, 1 mM CaCl2; and finally resuspended in 2 ml HBSSHB,1 mM CaCl2 and were left to recover over various time intervals (ranging from 0 to 60 min); thereafter, cells re-stimulated with 1 μM U46619 (Secondary stimulation) and changes in [Ca^2+]i mobilization were monitored as a function of time. […]

[3] = target: T3, TPα^S331,340A (Homo sapiens, UniProt P21731, S331A/S340A); assay: Intracellular calcium mobilization, HEK.TPα^S331,340A cells; assay type: cell-based
T3 construct: expressed in transfected cells
T3 sequence (P21731 whole entry S331A/S340A): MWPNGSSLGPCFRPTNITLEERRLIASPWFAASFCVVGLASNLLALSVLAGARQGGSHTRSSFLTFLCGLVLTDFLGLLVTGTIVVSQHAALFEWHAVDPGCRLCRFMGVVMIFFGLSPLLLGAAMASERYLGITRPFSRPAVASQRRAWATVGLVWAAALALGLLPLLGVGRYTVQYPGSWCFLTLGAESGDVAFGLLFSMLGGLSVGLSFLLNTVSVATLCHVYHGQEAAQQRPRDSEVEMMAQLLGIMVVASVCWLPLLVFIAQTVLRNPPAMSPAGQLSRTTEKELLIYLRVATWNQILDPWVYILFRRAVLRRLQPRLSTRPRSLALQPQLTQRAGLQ
Description: as §1, with “GRK2/βARK1[39].” for “GRK2/βARK1[39]. Approximately 48 h post-transfection, cells were harvested by scraping, washed twice in ice-cold PBS and resuspended in HBSSHB (modified Ca^2+/Mg^2+-free Hank's buffered salt solution, containing 10 μM HEPES, pH 7.67, 0.1% bovine serum albumin (BSA)) buffer at 10^7 cells/ml and incubated in the dark with 5 μM FURA2/AM for 45 min at 37 °C.”
Cells were stimulated with the TP agonist U46619 (1 μM) and changes in [Ca^2+]i mobilization were monitored as a function of time. […]
The vehicle had no effect on U46619-mediated [Ca^2+]i mobilization. Calibration of the signal was performed in each sample by adding 0.2% Triton X-100 to obtain the maximal fluorescence ratio (Rmax) and then 1 mM EGTA to obtain the minimal fluorescence ratio (Rmin). […]

[4] = secondary 1 μM U46619 at 15 min

| Bmax (pmol/mg protein ± S.E.M.) [1] [pmol/mg protein] | Δ[Ca2+]i, U46619-induced ([2]; primary 1 μM U46619 4 min) [nM] | Δ[Ca2+]i, U46619-induced [2, 4] [nM] | secondary U46619 [Ca2+]i response relative to primary response ([2]; TPα^S331,T337A) [%] | Δ[Ca2+]i, U46619-induced ([3]; primary 1 μM U46619 4 min) [nM] | Δ[Ca2+]i, U46619-induced [3, 4] [nM] | Structure (SMILES) |
| --- | --- | --- | --- | --- | --- | --- |
| 4.00 ± 0.04 |  |  |  |  |  | O=C(O)CCC/C=C\C[C@@H]1[C@H](CNNC(=O)Nc2ccccc2)[C@H]2CC[C@@H]1O2 [SQ29,548] |
|  | 181 ± 6.5 | 60 ± 7.1 | 33 | 160 ± 7.2 | 60 ± 10 | CCCCC[C@H](O)/C=C/[C@@H]1[C@@H](C/C=C\CCCC(=O)O)[C@H]2CO[C@@H]1C2 [U46619] |
